Laboratory results from PMC9735573 (International Journal of Molecular Sciences, 2022).
Read-outs that look alike come from different tables or passages of the source.

Tests used:
[1] = mouse
[2] = Pharmacokinetic study in mice, Retro-2.1 in PLGA–PEG–PLGA hydrogel, 25 mg/kg SC; format: in vivo; details: for half-life: flip-flop pharmacokinetics, read-out: Thalf (apparent elimination half-life) (converted); for Cmax: mice plasma
[3] = mouse, in vivo, 2 mg/kg
[4] = in vivo; details: female, BALB/c, mouse, ip, 50 mg/kg
[5] = test system: Shiga-like toxin-1 (Stx-1), HeLa cells; details: cited from earlier work
[6] = Characterisation and stability of Retro-2.1 formulation in PLGA–PEG–PLGA; format: physicochemical
Protocol: The thin-film rehydration technique was also used to formulate Retro-2.1 in PLGA–PEG–PLGA, using acetone as a dissolution solvent and saline as a rehydration vehicle. As previously described, the polymer was prepared as a 20% (w/v) solution in saline. This solution was able to stably dissolve 3.25 mg/mL of Retro-2.1, with an encapsulation yield of 98% and a drug loading of 1.9%. […] Of note, above 42 °C, the polymer aggregated and separated from water, which is in accordance with other reported polymers with similar structures. The formulation was stable for at least 13 days when stored at 4 °C. However, like the formulation in PEG–PLA, the formulation in PLGA–PEG–PLGA lost 20% of its payload upon storage at 25 °C for 24 h (Figure S10). Subsequent formulations were therefore freshly prepared and stored at 4 °C before use.
(§1) Dynamic light scattering experiments were performed using a Vasco Flex particle size analyzer equipped with a 450 nm laser. Data were recorded at 20 °C using a refractive index of 1.331 and a solvent viscosity of 0.982 cP. For each sample, 10 acquisitions were realized using a noise limit of 1% and 200 channels with a time interval of 1 µs. All samples were analyzed at a concentration of 10 mg/mL in 4 mL glass vials (Lab File, Wheaton) unless otherwise noted.
In a round-bottom flask, Retro-2.1 (59.8 mg, 137 µmol) and PLGA–PEG–PLGA (3.00 g, 545 µmol) were dissolved in acetone (15 mL). The solvent was removed under reduced pressure to yield a translucent pale-yellow polymeric film, which was further dried under vacuum for 4 h. The film was rehydrated with saline (15 mL) at room temperature, and 2 M NaOH solution in water was added to reach a pH of 7. The solution was sterile-filtered on a 0.2 µm membrane (Millex®) into 6 mL sterile vials and stored at 4 °C until further use. The Retro-2.1 concentration was determined using HPLC after dilution of the solution in MeCN. Drug loadings and encapsulation efficiencies were calculated, as described before.
(§2) A sample of the formulation was placed in a 500 µL Eppendorf tube and stored at −20 °C, 4 °C or room temperature (20–25 °C). At each timepoint, the sample was centrifuged (15,000× g, 5 min, 4 °C) and the Retro-2.1 concentration in the supernatant was determined using HPLC.

[7] = in vivo; details: female, BALB/c, mouse, 2 mg/kg; for half-life: Thalf (elimination half-life)
[8] = mouse, in vivo, ip, 50 mg/kg
[9] = human
[10] = Aqueous solubility; format: physicochemical
[11] = test system: Shiga-like toxin-1 (Stx-1), HeLa cells; test: cells; format: cell-based, human; details: for EC50: Homo sapiens, HeLa, read-out: EC50 (Stx-1 intoxication assay)
[12] = Characterisation and stability of Retro-2.1 formulation in PEG–PLA micelles; format: physicochemical
Protocol: Retro-2.1 was encapsulated in PEG–PLA micelles using the thin-film hydration method, also known as the solvent casting method. This method allowed us to dissolve 4.55 mg/mL of the drug in 26.4 mg/mL of PEG–PLA solution, with an encapsulation yield of 91% and a drug loading of 15%, as determined with HPLC analysis using a calibration curve (Figure S1). […] As previously described, including for Genexol®-PM, these micelles are likely to be spherical. Although the zeta potential of these micelles was not determined in this study, PEG–PLA micelles are widely described to have a neutral to slightly negatively charged surface. […] However, about 35% of the drug load precipitated upon storage at room temperature for 24 h (Figure S3). Every subsequent formulation was therefore stored at −20 °C and thawed at 4 °C before use.
as §1
In a round-bottom flask, Retro-2.1 (92 mg, 211 µmol) and PEG–PLA (528 mg, 132 µmol) were dissolved in acetone (20 mL). The solvent was removed under reduced pressure to yield a transparent pale-yellow polymeric film, which was rehydrated with saline (15 mL) at 40 °C. Next, 2M NaOH solution in water was added to reach a pH of 7. The volume was adjusted to 20 mL with saline, and the solution was sterile-filtered on a 0.2 µm membrane (Millex®, Duluth, GA, USA) into several 6 mL sterile vials and stored at −20 °C until further use. The Retro-2.1 concentration was determined using HPLC after dilution of the solution in MeOH. Drug loadings and encapsulation efficiencies were calculated using the following formula:(1) encapsulation yield=100*mdrug dissolved/mdrug addeddrug loading=100* mdrug/mdrug+mpolymer
as §2

[13] = SC injection of 25 mg/kg of Retro-2.1 in PLGA–PEG–PLGA, mice
[14] = female, BALB/c, mouse, plasma, SC injection of 25 mg/kg of Retro-2.1 in PLGA–PEG–PLGA, mice
[15] = female, BALB/c, mouse, SC injection of 25 mg/kg of Retro-2.1 in PLGA–PEG–PLGA

SMILES: Cc1nc(-c2ccc(C3N(C)c4ccc(F)cc4C(=O)N3c3ccccc3)s2)cs1 (centres unmarked) [Retro-2.1, 6-fluoro-1-methyl-2-(5-(2-methylthiazol-4-yl)thiophen-2-yl)-3-phenyl-2,3-dihydroquinazolin-4(1H)-1]
- Non-NADPH degradation [1]: < 5%
- Clint ([1]; microsomes): 460 μL.min^−1.mg of protein^−1
- AUCextra [2, 13]: 17%
- VSS [2, 13]: 456 L/kg
- AUC [2, 14]: 1420 ng·h/mL
- CL/F [2, 14]: 294 mL/min/kg
- MRT [2, 14]: 26 h
- Tmax [2, 14]: 2 h
- half-life [2, 14]: 1140 min
- Cmax [2, 15]: 75.2 ng/mL
- duration of sustained release ([2]; mice, 25 mg/kg SC in PLGA–PEG–PLGA): at least 48 h
- signs of pain or acute toxicity ([2]; mice, 25 mg/kg SC in PLGA–PEG–PLGA, over 48 h): no sign of pain or acute toxicity was observed
- AUCextra ([3]; female, BALB/c, ip): 2.1%
- Thalf (elimination half-life) ([3]; female, BALB/c, ip): 6.7 h
- VSS ([3]; female, BALB/c, ip): 26.3 L/kg
- plasmatic concentration 7 h following injection ([3]; female, BALB/c, ip): 21 nM
- AUCextra ([3]; female, BALB/c, iv): 2.3%
- Thalf (elimination half-life) ([3]; female, BALB/c, iv): 5 h
- plasmatic concentration 7 h following injection ([3]; female, BALB/c, iv): 6 nM
- signs of pain or acute toxicity [3]: no sign of pain or acute toxicity was observed
- AUC [4]: 18500 ng·h/mL
- CL/F [4]: 45 mL/min/kg
- Cmax [4]: 50600 ng/mL
- MRT [4]: 1 h
- Tmax [4]: 5 min
- times more potent than Retro-2 [5]: about 100 times
- EC50 ([5]; read-out: EC50 against the Shiga toxin): 102 nM
- drug concentration stably dissolved in polymer solution ([6]; 20% (w/v) PLGA–PEG–PLGA in saline): 3.25 mg/mL
- drug loading ([6]; PLGA–PEG–PLGA): 1.9%
- encapsulation yield ([6]; PLGA–PEG–PLGA): 98%
- formulation stable for ([6]; PLGA–PEG–PLGA formulation stored at 4 °C): at least 13 days
- payload lost upon storage ([6]; PLGA–PEG–PLGA formulation, 25 °C, 24 h): 20%
- temperature at which formulation starts solidifying ([6]; PLGA–PEG–PLGA formulation, inverted vial method): 31 °C
- micelle mean diameter (DLS) ([6]; Retro-2.1-loaded PLGA–PEG–PLGA micelles): 24.1 nm
- AUC ([7]; ip): 322 ng·h/mL
- CL/F ([7]; ip): 103 mL/min/kg
- Cmax ([7]; ip): 304 ng/mL
- MRT ([7]; ip): 4.2 h
- Tmax ([7]; ip): 5 min
- half-life ([7]; ip): 300 min
- AUC ([7]; iv): 213 ng·h/mL
- Cmax ([7]; iv): 328 ng/mL
- MRT ([7]; iv): 2.9 h
- Tmax ([7]; iv): 5 min
- Vd ([7]; iv): 27.5 L/kg
- clearance ([7]; iv): 157 mL/min/kg
- half-life ([7]; iv): 402 min
- AUCextra ([8]; female, BALB/c): 0.1%
- Thalf ([8]; female, BALB/c): 3.3 h
- VSS ([8]; female, BALB/c): 2.8 L/kg
- plasma detectability 24 h after injection [8]: barely detectable
- signs of pain or acute toxicity [8]: no apparent sign of pain or acute toxicity was observed
- Non-NADPH degradation [9]: < 5%
- Clint ([9]; microsomes): 27.8 μL.min^−1.mg of protein^−1
- Metabolic stability at t = 45 min (remaining) ([9]; microsomes, 0.75 h): 27.4%
- solubility [10]: < 1 µg/mL
- EC50 [11]: 0.09 µM
- formulation stable for ([12]; PEG–PLA formulation stored at 4 °C and −20 °C): at least 48 h
- drug load precipitated upon storage ([12]; PEG–PLA formulation, room temperature, 24 h): about 35%
- drug loading ([12]; PEG–PLA micelles): 15%
- encapsulation yield ([12]; PEG–PLA micelles): 91%
- micelle mean diameter (DLS) ([12]; Retro-2.1-loaded PEG–PLA micelles): 22.5 nm
- drug concentration dissolved in polymer solution ([12]; in 26.4 mg/mL of PEG–PLA solution, thin-film hydration, HPLC): 4.55 mg/mL

SMILES: CN1c2ccc(F)cc2C(=O)N(c2ccccc2)C1c1ccc(-c2csc(CO)n2)s1 (centres unmarked) [compound 3]
- AUCextra [2, 13]: 12%
- AUC [2, 14]: 621 ng·h/mL
- MRT [2, 14]: 21 h
- Tmax [2, 14]: 2 h
- half-life [2, 14]: 900 min
- Cmax [2, 15]: 39.3 ng/mL
- AUC [4]: 6700 ng·h/mL
- Cmax [4]: 2760 ng/mL
- MRT [4]: 3.43 h
- Tmax [4]: 15 min
- AUCextra ([8]; female, BALB/c): 0.4%
- Thalf ([8]; female, BALB/c): 3.7 h
- fold less potent than Retro-2.1 [11]: 80 fold
- EC50 [11]: 7.38 µM
